The values that follow come from publication PMC5653438 (Molecular microbiology, 2017).

Where a name gives a salt, the structure may show the parent alone.

The conditions of data set [1]: ref Lukesh et al., 2012; cited from earlier work.
Data set [2] concerns the target T1, PfLipL1 (Plasmodium falciparum, UniProt Q8IEG9). The data set can be described thus: biochemical. It counts as binding. Conditions: KD TSA, Kd calculated at 37 °C.
Data set [3] has as its system malaria parasite. Conditions: treatment with lipoate analogs; ref Allary et al., 2007; Afanador et al., 2014; cited from earlier work.
Data set [4] concerns the target T1, PfLipL1. The data set can be described thus: biochemical. Type of data set: binding. Conditions: KD ITC.
The mark [5] stands for this setting: reducing conditions, + TCEP (5 mM).
The mark [6] stands for this setting: non-reducing conditions (no reducing agent).

T1 sequence (Q8IEG9 19-408): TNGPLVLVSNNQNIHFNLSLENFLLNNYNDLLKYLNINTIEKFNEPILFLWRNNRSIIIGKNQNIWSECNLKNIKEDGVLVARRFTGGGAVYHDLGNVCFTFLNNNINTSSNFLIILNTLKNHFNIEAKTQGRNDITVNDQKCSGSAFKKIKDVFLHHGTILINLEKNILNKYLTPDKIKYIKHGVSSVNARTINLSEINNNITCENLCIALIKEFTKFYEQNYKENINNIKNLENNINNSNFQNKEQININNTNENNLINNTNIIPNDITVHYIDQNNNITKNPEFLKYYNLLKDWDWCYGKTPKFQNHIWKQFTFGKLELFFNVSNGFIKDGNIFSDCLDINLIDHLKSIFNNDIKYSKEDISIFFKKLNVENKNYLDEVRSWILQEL

Broadly, the pKa is the pH at which an ionisable group is half protonated. For the molecule `O[C@@H](CS)[C@@H](O)CS` (racemic) [DTT, dithiothreitol], in data set [1], the pKa is 9.3.

A word on the Kd: it is the constant that tells how readily two partners part at equilibrium. For the molecule `O=C(O)CCCC[C@@H](S)CCS` (racemic) [Lipoate + TCEP, dihydrolipoate], in data set [2] (setting [5]), the Kd was 94000 ± 30000 nM.

With `O=C(O)CCCCC(Cl)CCCl` (stereo not shown) [6,8-diClO, 6,8-dichlorooctanoate], in data set [3], the “parasite cell growth inhibition” value is listed as “causes parasite cell growth inhibition”. Also, the Kd in data set [2] (setting [6]) was 13000 ± 4000 nM; in data set [2] (setting [5]), 18000 ± 1000 nM.

For the molecule `Nc1ncnc2c1ncn2[C@@H]1O[C@H](COP(=O)(O)OC(=O)CCCCC(Cl)CCCl)[C@@H](O)[C@H]1O` (stereo partly drawn) [6,8-diClO-AMP, 6,8-dichlorooctanoic (((2R,3S,4R,5R)-5-(6-amino-9H-purin-9-yl)-3,4-dihydroxytetrahydrofuran-2-yl)methylphosphoric) anhydride monosodium salt], the Kd in data set [4] (non-reducing conditions) is 100 ± 30 nM; in data set [4] (reducing conditions, + TCEP) it was 500 ± 200 nM; in data set [2] (setting [6]), 90 ± 30 nM; in data set [2] (setting [5]), 250 ± 20 nM.

As for `O=C(O)CCCCCCCBr` [8-BrO, 8-bromooctanoate], the “parasite cell growth inhibition” value in data set [3] is given as “causes parasite cell growth inhibition”.

Consider `Nc1ncnc2c1ncn2[C@@H]1O[C@H](COP(=O)(O)OC(=O)CCCC[C@@H](S)CCS)[C@@H](O)[C@H]1O` [Lipoyl-AMP + TCEP, dihydrolipoyl-AMP], for which the Kd in data set [2] (setting [5]) is 5800 ± 400 nM.

As to `Nc1ncnc2c1ncn2[C@@H]1O[C@H](COP(=O)(O)OC(=O)CCCC[C@@H]2CCSS2)[C@@H](O)[C@H]1O` [Lipoyl-AMP, (R)-5-(1,2-dithiolan-3-yl)pentanoic (((2R,3S,4R,5R)-5-(6-amino-9H-purin-9-yl)-3,4-dihydroxytetrahydrofuran-2-yl)methylphosphoric) anhydride monosodium salt], the results for the Kd in data set [4] (non-reducing conditions) and in data set [2] (setting [6]) were 65 ± 5 nM and 20 ± 5 nM, respectively.
